Experimental data reported in PubChem BioAssay AID1963958 (Molecular Pharmacology Branch, DTP, NCI, 2024).
pIC50: −log10 of the molar value. Values belong to the compound of their own block, whether it stands above or below them.

Test system: MDA-MB-231 multicell spheroids, viability
Experiment: Anticancer human tumor MDA-MB-231 cell line growth inhibition [PI3K];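 further: spheroids exposed to agents for seven days before reading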;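 on viability, T/C: percent of vehicle control luminescence with DMSO treated spheroids as 100%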
Conditions: for pIC50: curve of first compound; for viability, T/C: stronger effect = lower value
Outline: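 Combination activity was assessed by viability in multicellular tumor spheroids carrying HUVEC and MSC components. Agents were tested with PI3K inhibitors from a Cmax-based top dose (or 10 microM) downward in half-log increments.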

[1] = second compound 0.0316 µM, first compound 0.0316 µM
[2] = second compound 0.0316 µM, first compound 0.1 µM
[3] = second compound 0.0316 µM, first compound 0.316 µM
[4] = second compound 0.0316 µM, first compound 1 µM
[5] = second compound 0.0316 µM, first compound 3.16 µM
[6] = second compound 0.0316 µM, first compound 10 µM
[7] = second compound 0.1 µM, first compound 0.0316 µM
[8] = second compound 0.1 µM, first compound 0.1 µM
[9] = second compound 0.1 µM, first compound 0.316 µM
[10] = second compound 0.1 µM, first compound 1 µM
[11] = second compound 0.1 µM, first compound 3.16 µM
[12] = second compound 0.1 µM, first compound 10 µM
[13] = second compound 0.316 µM, first compound 0.0316 µM
[14] = second compound 0.316 µM, first compound 0.1 µM
[15] = second compound 0.316 µM, first compound 0.316 µM
[16] = second compound 0.316 µM, first compound 1 µM
[17] = second compound 0.316 µM, first compound 3.16 µM
[18] = second compound 0.316 µM, first compound 10 µM
[19] = second compound 1 µM, first compound 0.0316 µM
[20] = second compound 1 µM, first compound 0.1 µM
[21] = second compound 1 µM, first compound 0.316 µM
[22] = second compound 1 µM, first compound 1 µM
[23] = second compound 1 µM, first compound 3.16 µM
[24] = second compound 1 µM, first compound 10 µM
[25] = second compound 3.16 µM, first compound 0.0316 µM
[26] = second compound 3.16 µM, first compound 0.1 µM
[27] = second compound 3.16 µM, first compound 0.316 µM
[28] = second compound 3.16 µM, first compound 1 µM
[29] = second compound 3.16 µM, first compound 3.16 µM
[30] = second compound 3.16 µM, first compound 10 µM
[31] = second compound 10 µM, first compound 0.0316 µM
[32] = second compound 10 µM, first compound 0.1 µM
[33] = second compound 10 µM, first compound 0.316 µM
[34] = second compound 10 µM, first compound 1 µM
[35] = second compound 10 µM, first compound 3.16 µM
[36] = second compound 10 µM, first compound 10 µM

pIC50 (second compound 0.0316 µM): 5.11
pIC50 (second compound 0.1 µM): 5.16
pIC50 (second compound 0.316 µM): 5.10
pIC50 (second compound 1 µM): 5.21
pIC50 (second compound 3.16 µM): 5.28
pIC50 (second compound 10 µM): 5.48
SMILES: CC1(C)CCC(CN2CCN(c3ccc(C(=O)NS(=O)(=O)c4ccc(NCC5CCOCC5)c([N+](=O)[O-])c4)c(Oc4cnc5[nH]ccc5c4)c3)CC2)=C(c2ccc(Cl)cc2)C1 + CC(Nc1ncnc2nc[nH]c12)c1cc2cccc(Cl)c2c(=O)n1-c1ccccc1
viability, T/C [1]: 104%
viability, T/C [2]: 96.9%
viability, T/C [3]: 110%
viability, T/C [4]: 102%
viability, T/C [5]: 112%
viability, T/C [6]: 33.9%
viability, T/C [7]: 92.5%
viability, T/C [8]: 92.1%
viability, T/C [9]: 100%
viability, T/C [10]: 107%
viability, T/C [11]: 103%
viability, T/C [12]: 26.6%
viability, T/C [13]: 90.5%
viability, T/C [14]: 99%
viability, T/C [15]: 105%
viability, T/C [16]: 98.2%
viability, T/C [17]: 108%
viability, T/C [18]: 37.1%
viability, T/C [19]: 85.9%
viability, T/C [20]: 86.6%
viability, T/C [21]: 75.6%
viability, T/C [22]: 92.4%
viability, T/C [23]: 91.8%
viability, T/C [24]: 23.7%
viability, T/C [25]: 70%
viability, T/C [26]: 64.7%
viability, T/C [27]: 65.3%
viability, T/C [28]: 66.6%
viability, T/C [29]: 72.2%
viability, T/C [30]: 27.7%
viability, T/C [31]: 50.6%
viability, T/C [32]: 50.4%
viability, T/C [33]: 49.6%
viability, T/C [34]: 50.5%
viability, T/C [35]: 53.7%
viability, T/C [36]: 28.4%

pIC50 (second compound 0.0316 µM): 5.25
pIC50 (second compound 0.1 µM): 5.29
pIC50 (second compound 0.316 µM): 5.33
pIC50 (second compound 1 µM): 5.42
pIC50 (second compound 3.16 µM): 5.71
pIC50 (second compound 10 µM): 6.43
SMILES: CCCS(=O)(=O)Nc1ccc(F)c(C(=O)c2c[nH]c3ncc(-c4ccc(Cl)cc4)cc23)c1F + CC(Nc1ncnc2nc[nH]c12)c1cc2cccc(Cl)c2c(=O)n1-c1ccccc1
viability, T/C [1]: 114%
viability, T/C [2]: 109%
viability, T/C [3]: 102%
viability, T/C [4]: 89.8%
viability, T/C [5]: 66.8%
viability, T/C [6]: 32.7%
viability, T/C [7]: 113%
viability, T/C [8]: 108%
viability, T/C [9]: 96.5%
viability, T/C [10]: 82.8%
viability, T/C [11]: 61.2%
viability, T/C [12]: 34.5%
viability, T/C [13]: 85.8%
viability, T/C [14]: 95.3%
viability, T/C [15]: 99.2%
viability, T/C [16]: 79.4%
viability, T/C [17]: 60.1%
viability, T/C [18]: 32.3%
viability, T/C [19]: 95.5%
viability, T/C [20]: 82.9%
viability, T/C [21]: 77.4%
viability, T/C [22]: 71.9%
viability, T/C [23]: 54.4%
viability, T/C [24]: 30.5%
viability, T/C [25]: 68.4%
viability, T/C [26]: 70.9%
viability, T/C [27]: 67.2%
viability, T/C [28]: 56.5%
viability, T/C [29]: 44.6%
viability, T/C [30]: 26.4%
viability, T/C [31]: 52.8%
viability, T/C [32]: 55%
viability, T/C [33]: 52.1%
viability, T/C [34]: 43.3%
viability, T/C [35]: 37.7%
viability, T/C [36]: 23%

pIC50 (second compound 0.0316 µM): < 5.00
pIC50 (second compound 0.1 µM): < 5.00
pIC50 (second compound 0.316 µM): < 5.00
pIC50 (second compound 1 µM): 5.09
pIC50 (second compound 3.16 µM): 5.86
pIC50 (second compound 10 µM): 6.48
SMILES: C[C@@H](NC(=O)c1ncnc(N)c1Cl)c1ncc(C(=O)Nc2cc(C(F)(F)F)c(Cl)cn2)s1 + CC(Nc1ncnc2nc[nH]c12)c1cc2cccc(Cl)c2c(=O)n1-c1ccccc1
viability, T/C [1]: 142%
viability, T/C [2]: 120%
viability, T/C [3]: 110%
viability, T/C [4]: 85.6%
viability, T/C [5]: 75.6%
viability, T/C [6]: 62.6%
viability, T/C [7]: 140%
viability, T/C [8]: 119%
viability, T/C [9]: 106%
viability, T/C [10]: 89.9%
viability, T/C [11]: 72.7%
viability, T/C [12]: 62.4%
viability, T/C [13]: 125%
viability, T/C [14]: 124%
viability, T/C [15]: 106%
viability, T/C [16]: 80.5%
viability, T/C [17]: 68%
viability, T/C [18]: 55.9%
viability, T/C [19]: 114%
viability, T/C [20]: 101%
viability, T/C [21]: 79.1%
viability, T/C [22]: 73.8%
viability, T/C [23]: 60.1%
viability, T/C [24]: 46.8%
viability, T/C [25]: 95.5%
viability, T/C [26]: 79.5%
viability, T/C [27]: 60.6%
viability, T/C [28]: 51.7%
viability, T/C [29]: 47.7%
viability, T/C [30]: 37.3%
viability, T/C [31]: 72%
viability, T/C [32]: 58.6%
viability, T/C [33]: 47.8%
viability, T/C [34]: 45.5%
viability, T/C [35]: 33.6%
viability, T/C [36]: 26.1%
